# Laboratory results published in ChEMBL document CHEMBL1201862, “PubChem BioAssay data set” (2004).
# Calls of active or inactive are those of the source.
# What was measured:
# [1] = biological target: T1, High affinity choline transporter 1 (Homo sapiens, UniProt Q9GZV3); assay: CHT inhibitors, dose response, cell-based, 5-point CRC, membrane potential dye (AID 504840); type: functional
# T1 sequence (Q9GZV3 whole entry): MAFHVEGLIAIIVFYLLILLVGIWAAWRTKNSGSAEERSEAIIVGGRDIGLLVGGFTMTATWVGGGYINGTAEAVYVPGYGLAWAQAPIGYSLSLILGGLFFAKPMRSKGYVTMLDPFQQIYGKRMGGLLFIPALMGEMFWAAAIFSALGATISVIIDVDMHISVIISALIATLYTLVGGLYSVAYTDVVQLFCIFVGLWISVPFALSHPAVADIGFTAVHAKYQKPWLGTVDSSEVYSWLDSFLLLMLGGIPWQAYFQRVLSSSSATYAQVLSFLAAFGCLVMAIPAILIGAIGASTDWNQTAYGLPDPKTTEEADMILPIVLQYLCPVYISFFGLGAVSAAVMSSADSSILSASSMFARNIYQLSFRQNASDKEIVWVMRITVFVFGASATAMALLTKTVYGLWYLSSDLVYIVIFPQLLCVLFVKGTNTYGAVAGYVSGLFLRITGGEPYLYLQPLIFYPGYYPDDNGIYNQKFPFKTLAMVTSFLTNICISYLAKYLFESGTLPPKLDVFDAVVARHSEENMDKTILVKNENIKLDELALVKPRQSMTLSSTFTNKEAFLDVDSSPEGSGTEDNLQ
# [2] = cytotoxicity in OVCAR8 ovarian cancer cells, dose response, PAX8 project, cell-based, plate reader, dry powder samples (AID 743197); type: functional; conditions: OVCAR-8
# Paired box protein Pax-8 = Paired box protein Pax-8 (Homo sapiens, UniProt Q06710); assay: inhibitors of PAX8-driven TPO luciferase reporter, dose response, RMG-I cells, cherry-pick (AID 687027); type: functional, cell-based;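 note: luciferase reporter driven by Pax8 target thyroperoxidase promoter measured by SteadyGlo luminescence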
# Paired box protein Pax-8, sequence (Q06710 whole entry): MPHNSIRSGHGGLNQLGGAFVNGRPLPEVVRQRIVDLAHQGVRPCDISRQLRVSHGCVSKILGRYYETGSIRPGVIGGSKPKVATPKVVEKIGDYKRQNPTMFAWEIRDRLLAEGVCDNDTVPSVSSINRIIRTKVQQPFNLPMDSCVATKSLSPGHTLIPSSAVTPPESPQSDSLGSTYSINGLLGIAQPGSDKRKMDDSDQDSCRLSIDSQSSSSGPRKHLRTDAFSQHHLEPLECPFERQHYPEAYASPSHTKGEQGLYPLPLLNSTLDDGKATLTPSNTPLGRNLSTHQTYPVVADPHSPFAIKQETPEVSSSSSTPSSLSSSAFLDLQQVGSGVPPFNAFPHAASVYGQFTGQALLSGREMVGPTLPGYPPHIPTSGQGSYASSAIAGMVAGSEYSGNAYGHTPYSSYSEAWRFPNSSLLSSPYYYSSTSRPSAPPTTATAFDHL
# Aminopeptidase N = biological target: T2, Aminopeptidase N (Plasmodium falciparum FcB1/Columbia, UniProt O96935); assay: P. falciparum M1AAP inhibitors, biochemical, fluorogenic H-Leu-NHMec substrate, 1536-well (AID 1445); parameters: species or system Plasmodium falciparum 3D7, 3D7
# T2 sequence (O96935 whole entry): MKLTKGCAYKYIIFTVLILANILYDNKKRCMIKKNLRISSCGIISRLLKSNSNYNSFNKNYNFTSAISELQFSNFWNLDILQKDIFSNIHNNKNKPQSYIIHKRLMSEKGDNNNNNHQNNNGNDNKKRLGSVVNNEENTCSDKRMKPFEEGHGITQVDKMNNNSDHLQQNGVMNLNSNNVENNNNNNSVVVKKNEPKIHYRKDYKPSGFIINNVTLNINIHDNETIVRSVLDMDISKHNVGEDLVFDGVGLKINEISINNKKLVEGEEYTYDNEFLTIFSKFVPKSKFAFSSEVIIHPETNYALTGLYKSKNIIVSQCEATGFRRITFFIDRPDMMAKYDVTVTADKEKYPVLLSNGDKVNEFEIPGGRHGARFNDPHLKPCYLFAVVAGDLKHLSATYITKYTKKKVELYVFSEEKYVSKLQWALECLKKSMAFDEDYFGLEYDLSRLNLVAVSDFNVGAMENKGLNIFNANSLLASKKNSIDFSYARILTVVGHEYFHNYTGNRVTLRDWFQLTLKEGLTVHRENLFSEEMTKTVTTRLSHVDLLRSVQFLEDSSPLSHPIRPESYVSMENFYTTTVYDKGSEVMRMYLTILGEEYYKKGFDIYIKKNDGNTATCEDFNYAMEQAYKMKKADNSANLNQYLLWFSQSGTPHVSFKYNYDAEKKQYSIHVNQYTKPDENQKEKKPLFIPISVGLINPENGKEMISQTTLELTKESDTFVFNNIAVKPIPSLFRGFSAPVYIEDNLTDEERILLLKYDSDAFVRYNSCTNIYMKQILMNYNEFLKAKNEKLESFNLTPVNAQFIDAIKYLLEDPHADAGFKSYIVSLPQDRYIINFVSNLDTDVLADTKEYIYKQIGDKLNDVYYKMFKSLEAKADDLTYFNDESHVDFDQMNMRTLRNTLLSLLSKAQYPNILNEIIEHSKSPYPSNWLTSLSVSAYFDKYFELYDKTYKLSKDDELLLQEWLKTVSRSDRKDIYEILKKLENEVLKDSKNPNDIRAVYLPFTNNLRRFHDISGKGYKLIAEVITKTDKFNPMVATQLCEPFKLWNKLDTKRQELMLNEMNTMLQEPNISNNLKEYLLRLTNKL
# cells [3] = type: functional, cell-based
# cells [4] = type: functional, cell-based; remark: listed apart in the source
# Genome polyprotein = Genome polyprotein (dengue virus type 2, UniProt P29990); assay: Dengue-2 NS5 methyltransferase inhibitors, primary screen, biochemical, confirmation dose response (AID 588689); type: functional
# Genome polyprotein, sequence (P29990 2492-3391 limits assumed): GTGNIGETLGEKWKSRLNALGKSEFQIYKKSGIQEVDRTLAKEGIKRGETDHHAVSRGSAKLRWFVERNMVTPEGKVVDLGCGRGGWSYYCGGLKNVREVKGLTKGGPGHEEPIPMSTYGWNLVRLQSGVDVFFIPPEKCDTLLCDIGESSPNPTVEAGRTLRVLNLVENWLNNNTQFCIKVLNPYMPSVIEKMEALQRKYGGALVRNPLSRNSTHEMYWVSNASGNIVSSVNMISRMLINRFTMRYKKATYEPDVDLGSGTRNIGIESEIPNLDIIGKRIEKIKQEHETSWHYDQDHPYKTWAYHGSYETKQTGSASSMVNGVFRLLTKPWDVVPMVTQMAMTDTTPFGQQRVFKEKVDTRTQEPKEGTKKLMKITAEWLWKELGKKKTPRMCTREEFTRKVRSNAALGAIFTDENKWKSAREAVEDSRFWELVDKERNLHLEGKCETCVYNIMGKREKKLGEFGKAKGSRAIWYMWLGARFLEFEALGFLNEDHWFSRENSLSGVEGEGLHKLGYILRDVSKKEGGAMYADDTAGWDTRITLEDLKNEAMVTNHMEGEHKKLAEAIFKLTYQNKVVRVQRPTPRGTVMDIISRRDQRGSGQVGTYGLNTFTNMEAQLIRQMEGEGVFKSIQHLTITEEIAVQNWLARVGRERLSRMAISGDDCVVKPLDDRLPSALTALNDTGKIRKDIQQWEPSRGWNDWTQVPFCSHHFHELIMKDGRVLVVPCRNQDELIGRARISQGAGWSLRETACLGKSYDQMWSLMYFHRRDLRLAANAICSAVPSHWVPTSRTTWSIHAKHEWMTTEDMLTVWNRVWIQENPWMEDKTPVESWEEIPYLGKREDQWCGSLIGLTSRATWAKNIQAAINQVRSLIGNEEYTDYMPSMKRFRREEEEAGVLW
# [5] = intracellular Trypanosoma cruzi inhibitors in host cells – cell-based, plate reader, cherry-pick samples, set 3, dose response (AID 651818); type: functional;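 note: compounds incubated with infected cells for about four days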
# [6] = biological target: T3, Low molecular weight phosphotyrosine protein phosphatase (Homo sapiens, UniProt P24666); type: functional; conditions: read-out: IC50_Mean;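 note: Dose-response confirmation assay measuring inhibition of LMPTP enzyme activity by fluorescence intensity read-out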
# T3 sequence (P24666 whole entry): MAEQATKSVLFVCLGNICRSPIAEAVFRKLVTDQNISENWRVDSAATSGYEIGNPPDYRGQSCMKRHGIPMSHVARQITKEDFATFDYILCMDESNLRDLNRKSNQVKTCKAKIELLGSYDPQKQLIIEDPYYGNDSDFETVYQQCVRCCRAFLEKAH
# [7] = Luminescence Cell-Based Dose Retest to Confirm Inhibitors of Cancer Stem Cells. [Related pubchem assays (depositor defined):AID2717, AID2721]; type: functional; conditions: Homo sapiens
# [8] = biological target: T4, Replicative DNA helicase DnaB (Mycobacterium tuberculosis, UniProt P9WMR3); assay: DnaB intein splicing inhibitors, dose response, biochemical, cell-free fluorescence (AID 449749); type: functional
# T4 sequence (P9WMR3 whole entry): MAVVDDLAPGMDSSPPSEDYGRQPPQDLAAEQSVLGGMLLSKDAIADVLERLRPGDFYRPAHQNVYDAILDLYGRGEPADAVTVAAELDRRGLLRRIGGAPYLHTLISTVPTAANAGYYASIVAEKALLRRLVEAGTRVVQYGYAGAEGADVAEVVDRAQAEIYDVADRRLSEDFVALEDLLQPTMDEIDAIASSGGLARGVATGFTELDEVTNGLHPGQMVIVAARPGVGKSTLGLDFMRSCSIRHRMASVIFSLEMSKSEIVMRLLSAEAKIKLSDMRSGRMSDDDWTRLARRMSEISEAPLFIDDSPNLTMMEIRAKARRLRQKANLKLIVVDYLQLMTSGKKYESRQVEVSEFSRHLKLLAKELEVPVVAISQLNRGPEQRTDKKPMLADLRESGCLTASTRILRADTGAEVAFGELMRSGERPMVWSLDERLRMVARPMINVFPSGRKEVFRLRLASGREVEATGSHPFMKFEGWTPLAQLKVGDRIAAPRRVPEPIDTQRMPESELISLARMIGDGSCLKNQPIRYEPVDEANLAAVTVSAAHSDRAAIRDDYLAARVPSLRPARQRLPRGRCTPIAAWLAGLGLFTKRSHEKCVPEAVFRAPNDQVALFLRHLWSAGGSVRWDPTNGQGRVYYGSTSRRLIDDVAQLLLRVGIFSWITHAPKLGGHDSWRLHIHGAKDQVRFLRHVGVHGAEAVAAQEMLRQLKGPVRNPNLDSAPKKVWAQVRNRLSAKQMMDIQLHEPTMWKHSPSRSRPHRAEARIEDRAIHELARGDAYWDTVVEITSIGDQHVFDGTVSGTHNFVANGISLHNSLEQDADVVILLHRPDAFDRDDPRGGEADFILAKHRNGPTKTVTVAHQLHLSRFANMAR
# Protein RecA = biological target: T5, Protein RecA (Mycobacterium tuberculosis, UniProt P9WHJ3); assay: Fluorescence Cell-Free Homogeneous Dose Retest to Identify Inhibitors of RecA-Intein Splicing Activity. [Related pubchem assays (depositor defined):AID2097, AID2223, AID489010, AID492950]; type: functional
# T5 sequence (P9WHJ3 whole entry): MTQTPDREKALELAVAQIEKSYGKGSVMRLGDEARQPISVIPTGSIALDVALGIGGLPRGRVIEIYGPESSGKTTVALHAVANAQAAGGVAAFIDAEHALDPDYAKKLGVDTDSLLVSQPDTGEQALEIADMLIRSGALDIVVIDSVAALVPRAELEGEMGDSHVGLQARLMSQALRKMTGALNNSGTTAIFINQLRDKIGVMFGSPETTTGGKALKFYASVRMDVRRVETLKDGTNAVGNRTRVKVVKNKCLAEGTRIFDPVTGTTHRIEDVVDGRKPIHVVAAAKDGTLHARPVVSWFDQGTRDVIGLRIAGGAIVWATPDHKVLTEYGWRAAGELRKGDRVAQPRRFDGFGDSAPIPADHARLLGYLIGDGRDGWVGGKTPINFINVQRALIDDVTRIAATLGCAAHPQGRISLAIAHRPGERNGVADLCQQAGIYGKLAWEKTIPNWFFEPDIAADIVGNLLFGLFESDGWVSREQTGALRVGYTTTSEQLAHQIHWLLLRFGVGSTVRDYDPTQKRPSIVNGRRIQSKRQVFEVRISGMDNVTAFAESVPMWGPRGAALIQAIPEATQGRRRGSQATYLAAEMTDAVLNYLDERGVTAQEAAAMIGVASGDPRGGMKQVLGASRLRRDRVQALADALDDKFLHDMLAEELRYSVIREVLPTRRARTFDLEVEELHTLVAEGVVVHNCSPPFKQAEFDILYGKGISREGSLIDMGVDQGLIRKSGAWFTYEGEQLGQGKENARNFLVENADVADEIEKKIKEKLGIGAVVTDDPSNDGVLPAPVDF
# [9] = A549 cell cytotoxicity, dose response, cytotoxicity control, plate reader, cherry-pick, antagonist series (AID 743412); type: functional, cell-based
structure (smiles),measurement,setting,value
CCc1ccc(S(=O)(=O)NCc2cn3cccc(C)c3n2)s1,IC50,[1],13.8 µM (active)
C[C@@H]1CN([C@H](C)CO)C(=O)c2cc(NS(=O)(=O)c3ccccc3)ccc2O[C@@H](C)CCCCO[C@H]1CN(C)Cc1ccc(Cl)c(Cl)c1,AC50,[2],45 µM (active)
same,AC50,Paired box protein Pax-8,9.93 µM (active)
O=C(CNC(=O)c1ccccc1Br)N/N=C/c1cc(Br)ccc1O,IC50,Aminopeptidase N,26.6 µM (active)
same,EC50,cells [3],> 350 µM (not active)
same,EC50,cells [4],34.7 µM (active)
COc1ccc(C2(O)CCN(C(=O)NC3CCCCC3)CC2)cc1,IC50,[1],14.5 µM (active)
O=C1NC(=O)C(=Cc2c[nH]nc2-c2ccccc2)C(=O)N1,IC50,Genome polyprotein,53 µM (active)
C[C@@H]1CN([C@@H](C)CO)C(=O)Cc2cc(NC(=O)CCC(F)(F)F)ccc2O[C@@H]1CN(C)Cc1ccc(C(=O)Nc2ccccc2N)cc1,AC50,[5],2.67 µM (active)
O=C(O)c1cccc(S(=O)(=O)Nc2ccc([N+](=O)[O-])cc2O)c1,IC50,Aminopeptidase N,66.2 µM (active)
Nc1ccccc1Sc1ccc(C(=O)c2ccccc2C(=O)O)cc1[N+](=O)[O-],IC50,Aminopeptidase N,98.9 µM (active)
O=C1c2ccccc2C(O)(c2ccccc2)N1c1ccc([N+](=O)[O-])cc1Cl (stereo not drawn),IC50,Genome polyprotein,60.8 µM (active)
C(=C\c1nc(N2CCCC2)c2ccccc2n1)/c1ccccc1,IC50,[6],8.49 µM (active)
Cc1ccc(C)c(C(=O)COc2ncnc3ccccc23)c1,IC50,[1],15.1 µM (active)
C[C@@H]1CCCCO[C@@H](CN(C)Cc2ccc(C(F)(F)F)cc2)[C@@H](C)CN([C@@H](C)CO)C(=O)c2cc(NS(=O)(=O)c3ccccc3)ccc2O1,AC50,[2],> 70 µM (inactive)
same,AC50,Paired box protein Pax-8,7.21 µM (active)
CCc1ccc2oc(C(=O)NCC(c3ccc(OC)cc3)N3CCCCC3)c(C)c2c1 (stereo not drawn),IC50,[1],2.29 µM (active)
same,AC50,[7],3.23 µM (active)
COc1ccc(N2C(=O)C(Cl)=C(N3CCOCC3)C2=O)cc1,AC50,[8],10.8 µM (active)
same,EC50,Protein RecA,3 µM (active)
same,IC50,Genome polyprotein,33.1 µM (active)
C[C@@H]1CN([C@@H](C)CO)C(=O)c2cccc(NC(=O)c3cnccn3)c2O[C@@H]1CN(C)Cc1ccc(C(=O)Nc2ccccc2N)cc1,AC50,[5],2.35 µM (active)
O=c1cc(CSc2nc(NCc3ccccc3)c3ccccc3n2)nc2ccc(Cl)cn12,IC50,[6],26 µM (inactive)
Cc1noc(NS(=O)(=O)c2ccc(NC(=O)c3ccccc3NS(=O)(=O)c3ccc(F)cc3)cc2)c1C,IC50,Genome polyprotein,40.9 µM (active)
CC[C@H](CO)Oc1cc(NCc2ccc(Cl)c(Cl)c2)c2ncn(C(C)C)c2c1,AC50,[9],30 µM (active)
Cc1noc(C)c1S(=O)(=O)Nc1ccc2c(c1)C(=O)N([C@H](C)CO)C[C@H](C)[C@@H](CN(C)C(=O)Nc1ccc(C(F)(F)F)cc1)OCCCC[C@@H](C)O2,AC50,[5],1.19 µM (active)
C[C@@H]1CN([C@H](C)CO)C(=O)c2cccc(NC(=O)c3ccncc3)c2O[C@@H]1CN(C)Cc1ccc(-c2ccccc2)cc1,AC50,[5],4.37 µM (active)
C[C@@H]1CN([C@@H](C)CO)C(=O)c2cccc(NC(=O)C3CCCCC3)c2O[C@H]1CN(C)Cc1ccc(-c2ccccc2)cc1,AC50,[5],3.29 µM (active)
COc1ccc(CNC(=O)C2CCN(S(=O)(=O)c3cc(OC)ccc3OC)CC2)cc1,IC50,Aminopeptidase N,99 µM (active)
COc1ccc(-c2cc(C(=O)Nc3cc(Br)ccc3O)no2)cc1,IC50,[6],2.09 µM (active)
O=S(=O)(c1ccc2c(c1)OCCO2)N1CCC(n2nnc3cc(F)ccc32)CC1,IC50,Aminopeptidase N,8.18 µM (active)
C[C@H]1CCCCO[C@H](CN(C)Cc2ccc(Cl)c(Cl)c2)[C@@H](C)CN([C@@H](C)CO)C(=O)c2cc(NC(=O)Nc3ccccc3)ccc2O1,AC50,[2],> 70 µM (inactive)
same,AC50,Paired box protein Pax-8,13.1 µM (active)
